Source: ChEMBL document CHEMBL1201862, “PubChem BioAssay data set” (2004)
Each block holds one compound with its values, some of them ahead of it. The source made the active and inactive calls.

Experiments:
[1] = HepG2 cell cytotoxicity, dose response, cytotoxicity control for Shn3 inhibitor project, CellTiter-Glo, cherry-picked (AID 624134); format: functional, cell-based
INS1 = assay: beta cell apoptosis inhibitors, cytokine rescue, dose response, luminescence, retest (AID 449756); format: functional, cell-based; settings: Rattus norvegicus;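 further: cell death triggered by IL-1 beta plus TNF-alpha plus IFN-gamma mixture; protective hits raise ATP signal compared with cytokine alone wells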
[2] = Shn3 3'UTR reporter inhibitors, dose response, cell-based, Clone20 osteoblasts, firefly luciferase, cherry-picked (AID 624132); format: functional;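 further: firefly luciferase luminescence from reporter carrying the Shn3 3'UTR in osteoblasts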
[3] = control 3'UTR Renilla luciferase suppression, dose response, counter-screen for Shn3 inhibitor project, cell-based, Clone20-Shn3RL, cherry-picked (AID 624133); format: functional
[4] = system: Streptococcus sp. 'group A'; assay: growth inhibition of control SK(-) GAS strain, dose response, counter-screen for streptokinase expression inhibitor project, luminescence, kanamycin, BacTiterGlo, confirmation (AID 1900); format: functional, organism-based
[5] = inhibitors of intracellular T. cruzi replication, confirmation, NIH3T3 host cells, beta-gal luminescence (AID 2044); format: functional, cell-based;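 further: intracellular parasites grown in NIH/3T3 mouse fibroblasts as host cells; luminescent beta-galactosidase reporter signal from transgenic T. cruzi replicating inside host cells; inhibitors lower the luminescence signal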
[6] = cytotoxicity toward NIH3T3 fibroblasts, dose response, counter-screen, cell-based, ATP luminescence, mouse fibroblasts (AID 2010); format: functional;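 further: cells exposed to compound for about 90 hours before reading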
Streptococcus = assay: Group A Streptococcus viability loss, dose response, counter-screen for streptokinase expression inhibitor project, luminescence, BacTiterGlo (AID 1915); format: functional, organism-based;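 further: potency for reduction of bacterial viability or growth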
[7] = target: Induced myeloid leukemia cell differentiation protein Mcl-1 (Homo sapiens, UniProt Q07820); format: functional
Sequence of Induced myeloid leukemia cell differentiation protein Mcl-1 (Q07820 whole entry): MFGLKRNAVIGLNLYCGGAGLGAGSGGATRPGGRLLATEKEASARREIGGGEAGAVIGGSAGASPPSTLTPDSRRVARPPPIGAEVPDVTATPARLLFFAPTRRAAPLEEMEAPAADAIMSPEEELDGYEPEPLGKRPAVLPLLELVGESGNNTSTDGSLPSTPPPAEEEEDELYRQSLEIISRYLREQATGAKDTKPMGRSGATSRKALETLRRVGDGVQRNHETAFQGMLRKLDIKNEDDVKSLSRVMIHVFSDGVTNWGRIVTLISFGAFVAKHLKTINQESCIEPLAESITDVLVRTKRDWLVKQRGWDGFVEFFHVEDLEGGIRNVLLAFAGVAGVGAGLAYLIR

[8] = target: T1, Short transient receptor potential channel 4 (Mus musculus, UniProt Q9QUQ5); assay: mouse TRPC4 channel inhibitors, dose response, cell-based, HEK293 TRPC4/mu-opioid, Fluo-4 calcium (AID 434942); format: functional;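 further: potency of inhibitors blocking the TRPC4 calcium response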
T1 sequence (Q9QUQ5 whole entry): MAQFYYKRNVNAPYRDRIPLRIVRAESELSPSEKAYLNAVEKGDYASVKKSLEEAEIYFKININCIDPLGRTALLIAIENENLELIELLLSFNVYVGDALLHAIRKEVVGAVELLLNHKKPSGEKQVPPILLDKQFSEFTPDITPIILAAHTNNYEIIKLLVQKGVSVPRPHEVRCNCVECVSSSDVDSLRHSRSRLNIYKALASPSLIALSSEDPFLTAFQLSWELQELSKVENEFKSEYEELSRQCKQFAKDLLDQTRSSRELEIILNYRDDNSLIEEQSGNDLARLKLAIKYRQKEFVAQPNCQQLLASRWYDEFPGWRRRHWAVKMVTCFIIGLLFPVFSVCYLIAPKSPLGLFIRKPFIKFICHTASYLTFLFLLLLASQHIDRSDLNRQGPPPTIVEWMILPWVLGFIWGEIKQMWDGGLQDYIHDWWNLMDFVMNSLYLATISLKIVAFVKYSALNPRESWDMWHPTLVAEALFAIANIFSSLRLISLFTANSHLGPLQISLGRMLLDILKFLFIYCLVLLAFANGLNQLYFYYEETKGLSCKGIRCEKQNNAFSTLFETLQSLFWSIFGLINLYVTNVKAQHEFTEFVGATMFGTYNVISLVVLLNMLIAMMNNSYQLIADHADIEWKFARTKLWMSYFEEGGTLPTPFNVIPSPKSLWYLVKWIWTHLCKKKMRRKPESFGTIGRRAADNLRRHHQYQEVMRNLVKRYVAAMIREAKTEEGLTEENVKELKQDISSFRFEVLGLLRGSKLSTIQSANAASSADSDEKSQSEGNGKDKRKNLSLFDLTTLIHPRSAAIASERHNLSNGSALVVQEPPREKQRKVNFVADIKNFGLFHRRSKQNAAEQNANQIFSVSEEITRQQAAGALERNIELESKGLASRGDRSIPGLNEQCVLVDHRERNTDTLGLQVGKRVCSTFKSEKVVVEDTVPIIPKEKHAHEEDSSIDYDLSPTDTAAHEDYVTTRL

Fatty acid synthase [9] = target: T2, Fatty acid synthase (Homo sapiens, UniProt P49327); assay: FAS thioesterase domain inhibitors, dose response, biochemical, endpoint fluorescence intensity, uHTS hits (AID 624327); format: functional;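 further: fluorescence from hydrolysis of an O-methyl fluorescein acyl ester substrate by the enzyme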
T2 sequence (P49327 whole entry, the tested form may be a part): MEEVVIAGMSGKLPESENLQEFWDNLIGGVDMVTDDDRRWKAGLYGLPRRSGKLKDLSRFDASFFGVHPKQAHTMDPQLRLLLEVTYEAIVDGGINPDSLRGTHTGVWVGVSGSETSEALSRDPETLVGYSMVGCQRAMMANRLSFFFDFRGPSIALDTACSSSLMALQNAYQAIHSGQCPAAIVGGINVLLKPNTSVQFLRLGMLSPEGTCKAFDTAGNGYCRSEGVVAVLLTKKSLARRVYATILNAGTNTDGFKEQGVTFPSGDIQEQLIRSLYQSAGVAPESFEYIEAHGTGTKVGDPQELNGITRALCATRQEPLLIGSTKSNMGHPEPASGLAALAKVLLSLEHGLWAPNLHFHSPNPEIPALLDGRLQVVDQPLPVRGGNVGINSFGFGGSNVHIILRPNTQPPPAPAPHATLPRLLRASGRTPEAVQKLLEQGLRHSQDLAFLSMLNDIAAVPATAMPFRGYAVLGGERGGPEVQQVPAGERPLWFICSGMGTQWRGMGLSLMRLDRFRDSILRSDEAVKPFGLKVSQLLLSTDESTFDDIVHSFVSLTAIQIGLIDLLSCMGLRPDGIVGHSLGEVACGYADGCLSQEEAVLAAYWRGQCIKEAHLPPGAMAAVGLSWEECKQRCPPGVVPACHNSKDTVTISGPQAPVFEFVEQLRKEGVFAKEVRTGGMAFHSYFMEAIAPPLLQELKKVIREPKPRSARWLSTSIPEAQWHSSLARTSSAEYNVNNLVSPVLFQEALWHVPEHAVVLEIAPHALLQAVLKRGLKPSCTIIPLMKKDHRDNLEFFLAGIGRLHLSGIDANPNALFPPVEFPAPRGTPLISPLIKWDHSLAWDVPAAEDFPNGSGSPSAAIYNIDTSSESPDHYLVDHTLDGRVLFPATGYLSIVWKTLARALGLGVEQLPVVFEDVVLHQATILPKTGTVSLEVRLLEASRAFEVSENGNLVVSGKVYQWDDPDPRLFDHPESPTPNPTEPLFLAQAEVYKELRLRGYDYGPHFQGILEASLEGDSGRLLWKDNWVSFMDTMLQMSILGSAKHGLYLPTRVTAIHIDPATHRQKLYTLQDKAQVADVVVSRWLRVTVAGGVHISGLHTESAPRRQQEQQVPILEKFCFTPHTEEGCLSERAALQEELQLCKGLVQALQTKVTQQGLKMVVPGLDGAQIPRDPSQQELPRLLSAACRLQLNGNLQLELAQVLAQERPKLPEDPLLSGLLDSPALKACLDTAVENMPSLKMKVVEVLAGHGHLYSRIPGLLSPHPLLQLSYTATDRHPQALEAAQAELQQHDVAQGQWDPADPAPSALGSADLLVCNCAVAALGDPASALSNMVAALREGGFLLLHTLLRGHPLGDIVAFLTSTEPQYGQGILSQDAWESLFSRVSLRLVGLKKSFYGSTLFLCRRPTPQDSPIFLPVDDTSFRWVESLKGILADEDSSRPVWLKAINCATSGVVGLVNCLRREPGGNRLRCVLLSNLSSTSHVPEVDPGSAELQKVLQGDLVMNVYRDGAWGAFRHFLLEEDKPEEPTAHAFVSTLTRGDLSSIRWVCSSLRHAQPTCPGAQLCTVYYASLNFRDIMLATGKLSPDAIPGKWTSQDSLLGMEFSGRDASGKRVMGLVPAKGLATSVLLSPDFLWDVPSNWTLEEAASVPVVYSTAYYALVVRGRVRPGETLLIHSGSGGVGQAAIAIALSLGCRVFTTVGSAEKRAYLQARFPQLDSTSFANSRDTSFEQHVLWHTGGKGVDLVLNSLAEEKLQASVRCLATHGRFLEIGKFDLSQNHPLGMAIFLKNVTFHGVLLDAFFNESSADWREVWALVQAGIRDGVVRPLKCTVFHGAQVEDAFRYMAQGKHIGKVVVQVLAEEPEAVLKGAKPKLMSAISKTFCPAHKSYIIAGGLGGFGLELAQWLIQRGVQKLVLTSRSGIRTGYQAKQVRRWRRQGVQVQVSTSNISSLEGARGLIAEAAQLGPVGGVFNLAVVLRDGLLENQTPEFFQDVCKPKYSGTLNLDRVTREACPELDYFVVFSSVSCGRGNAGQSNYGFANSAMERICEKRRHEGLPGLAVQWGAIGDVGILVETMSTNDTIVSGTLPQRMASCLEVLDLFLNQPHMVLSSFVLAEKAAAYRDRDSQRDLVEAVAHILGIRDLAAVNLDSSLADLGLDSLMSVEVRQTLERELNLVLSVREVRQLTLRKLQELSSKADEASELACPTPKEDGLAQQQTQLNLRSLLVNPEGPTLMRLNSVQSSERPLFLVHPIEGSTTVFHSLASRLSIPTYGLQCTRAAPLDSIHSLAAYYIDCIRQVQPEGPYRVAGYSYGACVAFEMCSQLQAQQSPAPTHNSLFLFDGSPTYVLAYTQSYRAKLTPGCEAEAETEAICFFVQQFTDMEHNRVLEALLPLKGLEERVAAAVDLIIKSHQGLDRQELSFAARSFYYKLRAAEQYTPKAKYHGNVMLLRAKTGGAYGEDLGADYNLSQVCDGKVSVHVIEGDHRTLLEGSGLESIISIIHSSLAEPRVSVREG

Fatty acid synthase [10] = target: T2, Fatty acid synthase; assay: FAS thioesterase domain inhibitors, dose response, biochemical, kinetic fluorescence intensity (AID 624326); format: functional;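 further: rate of fluorescence rise from hydrolysis of a fluorogenic O-methyl fluorescein ester substrate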
Large T antigen = Large T antigen (Simian virus 40, UniProt P03070); format: functional, Betapolyomavirus macacae;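 further: Confirmatory-stage PubChem screen for compounds that inhibit SV40 T antigen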
Sequence of Large T antigen (P03070 whole entry): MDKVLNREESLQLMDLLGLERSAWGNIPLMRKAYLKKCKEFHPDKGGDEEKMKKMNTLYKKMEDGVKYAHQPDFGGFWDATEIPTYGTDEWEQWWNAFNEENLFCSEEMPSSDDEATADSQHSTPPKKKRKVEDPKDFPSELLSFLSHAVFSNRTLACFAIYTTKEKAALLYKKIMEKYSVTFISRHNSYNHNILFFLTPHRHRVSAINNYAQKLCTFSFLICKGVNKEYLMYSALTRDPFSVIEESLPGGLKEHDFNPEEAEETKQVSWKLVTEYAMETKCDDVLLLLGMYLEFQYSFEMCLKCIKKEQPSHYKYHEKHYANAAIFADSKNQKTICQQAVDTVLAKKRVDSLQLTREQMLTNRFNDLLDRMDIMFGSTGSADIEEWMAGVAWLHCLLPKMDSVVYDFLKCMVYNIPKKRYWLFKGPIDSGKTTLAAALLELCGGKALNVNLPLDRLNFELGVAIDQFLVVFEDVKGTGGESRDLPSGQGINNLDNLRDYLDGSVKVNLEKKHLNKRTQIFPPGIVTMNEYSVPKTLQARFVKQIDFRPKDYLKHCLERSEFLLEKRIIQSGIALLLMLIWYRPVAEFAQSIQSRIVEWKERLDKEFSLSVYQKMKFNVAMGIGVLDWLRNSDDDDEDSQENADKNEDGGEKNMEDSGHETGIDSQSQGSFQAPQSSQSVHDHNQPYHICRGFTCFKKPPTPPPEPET

[11] = NIH-3T3 fibroblast cytotoxicity, dose response, cytotoxicity control, cell-based, fluorescence, Alamar Blue, secondary assay (AID 2327); format: functional;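 further: NIH-3T3 mouse fibroblasts cultured with fluconazole at 8 µg/mL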
[12] = Luminescence Cell-Based Dose Confirmation HTS to Identify Inhibitors of Platelet Dense Granule Release. [Related pubchem assays: 1663 (Primary HTS), 1678 (Summary of Project)]; format: functional
[13] = target: Luciferin 4-monooxygenase (Photinus pyralis, UniProt P08659); assay: firefly luciferase enzyme inhibitors, dose response, biochemical, luminescence (AID 1891)
Sequence of Luciferin 4-monooxygenase (P08659 whole entry): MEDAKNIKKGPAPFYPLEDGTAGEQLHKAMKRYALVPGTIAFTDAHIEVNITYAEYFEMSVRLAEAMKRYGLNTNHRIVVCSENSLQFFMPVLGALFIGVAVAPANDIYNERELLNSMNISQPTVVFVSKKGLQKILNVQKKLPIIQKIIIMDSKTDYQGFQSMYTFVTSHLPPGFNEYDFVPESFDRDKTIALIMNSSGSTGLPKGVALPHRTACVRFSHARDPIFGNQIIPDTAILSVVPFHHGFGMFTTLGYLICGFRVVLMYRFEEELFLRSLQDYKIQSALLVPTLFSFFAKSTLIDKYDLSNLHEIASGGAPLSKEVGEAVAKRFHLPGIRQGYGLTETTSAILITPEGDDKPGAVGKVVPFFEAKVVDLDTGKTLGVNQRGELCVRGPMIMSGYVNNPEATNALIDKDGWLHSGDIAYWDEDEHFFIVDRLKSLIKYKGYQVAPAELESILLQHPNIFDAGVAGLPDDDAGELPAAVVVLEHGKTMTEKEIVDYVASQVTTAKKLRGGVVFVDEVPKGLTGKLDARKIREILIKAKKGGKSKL

[14] = target: T3, Rac GTPase-activating protein 1 (Homo sapiens, UniProt Q9H0H5); assay: MgcRacGAP GTPase-activating activity inhibitors, confirmation, biochemical, ADP Hunter fluorescence, primary and confirmatory (AID 624330); format: functional
T3 sequence (Q9H0H5 whole entry): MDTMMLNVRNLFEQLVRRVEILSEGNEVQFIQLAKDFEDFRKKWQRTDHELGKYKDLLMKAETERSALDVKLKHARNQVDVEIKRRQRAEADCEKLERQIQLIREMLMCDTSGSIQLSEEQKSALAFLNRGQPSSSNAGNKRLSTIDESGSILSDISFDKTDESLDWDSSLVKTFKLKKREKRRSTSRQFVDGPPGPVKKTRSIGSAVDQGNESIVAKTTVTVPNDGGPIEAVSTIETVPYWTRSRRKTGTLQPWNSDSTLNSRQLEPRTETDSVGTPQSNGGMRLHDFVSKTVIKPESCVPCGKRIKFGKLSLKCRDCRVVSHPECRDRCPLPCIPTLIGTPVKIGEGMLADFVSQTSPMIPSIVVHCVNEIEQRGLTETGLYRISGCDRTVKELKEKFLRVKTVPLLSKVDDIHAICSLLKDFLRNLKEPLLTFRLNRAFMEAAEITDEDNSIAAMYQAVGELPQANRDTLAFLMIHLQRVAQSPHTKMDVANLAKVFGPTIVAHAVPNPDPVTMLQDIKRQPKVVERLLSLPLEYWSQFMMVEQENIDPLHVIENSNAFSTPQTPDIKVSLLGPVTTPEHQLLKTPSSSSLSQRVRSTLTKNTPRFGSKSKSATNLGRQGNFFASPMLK

[15] = P. falciparum Dd2 growth inhibitors, dose response, SYBR Green, cherry-picked samples (AID 1159567); format: functional, cell-based

SMILES: COc1ccccc1C(NC(C)=O)c1cc(Cl)c2cccnc2c1O (configuration not stated)
- AC50 [1]: 2.3 µM (active)
- AC50 (INS1): 1.38 µM (active)
- AC50 [2]: 2.56 µM (active)
- AC50 [3]: 1.27 µM (active)
- EC50 [4]: 2.9 µM (active)
- EC50 [5]: 0.647 µM (active)
- EC50 [6]: 2.85 µM (active)
- EC50 (Streptococcus): 2.95 µM (active)

- IC50 [7]: 2.92 µM (active)
SMILES: COc1ccccc1C(=O)N=Nc1c(O)[nH]c2ccc([N+](=O)[O-])cc12

- EC50 [8]: 6.68 µM (active)
SMILES: Cc1ccc(C(=O)C2=C(O)C(=O)N(Cc3cccnc3)C2c2ccc(Cl)c(Cl)c2)o1 (configuration not stated)

- IC50 (Fatty acid synthase [9]): 4.81 µM (active)
- IC50 (Fatty acid synthase [10]): 7.99 µM (active)
SMILES: COc1cccc(-n2c(CN3CCN(c4ccccc4)CC3)nc3ccc([N+](=O)[O-])cc3c2=O)c1

- IC50 (Fatty acid synthase [9]): 19.4 µM (active)
- IC50 (Fatty acid synthase [10]): 13.2 µM (active)
SMILES: O=C(Nc1cccc(C(=O)O)c1)/C(=C/c1cccc([N+](=O)[O-])c1)NC(=O)c1cccc(Br)c1

- IC50 (Fatty acid synthase [9]): 8.34 µM (active)
- IC50 (Fatty acid synthase [10]): 8.05 µM (active)
SMILES: CC1(C)CC(=O)C=C(c2ccc(-c3cnn(Cc4ccccc4)c3)cc2)C1=O

- IC50 (Large T antigen): 15.2 µM (active)
SMILES: CC/C(=N\c1ccccc1O)C1=C(O)CC(c2ccccc2)CC1=O (configuration not stated)

- IC50 (Large T antigen): 17.6 µM (active)
SMILES: Cn1cccc1/C=N/N1CCN(Cc2ccccc2)CC1

SMILES: Cc1ccc(N/N=C/c2ccc3c(c2)OCCO3)cc1Cl
- EC50 [11]: 40.1 µM (active)
- EC50 [12]: 21 µM (active)
- EC50 [13]: > 112 µM (not active)

- IC50 (Large T antigen): 12.3 µM (active)
- IC50 [14]: 16.7 µM (active)
SMILES: O=C1CCCC(O)=C1/C=N/c1ccc(O)cc1

SMILES: COc1ccc2c3c([nH]c2c1)[C@@H](CO)N(C(=O)Nc1cccc(F)c1)CC31CN(CC2CCOCC2)C1
- AC50 [15]: 4.22 µM (active)

SMILES: C/C=C/c1ccc([C@H]2[C@H](CO)N(S(=O)(=O)Cc3ccccc3)C23CN(C(=O)C2CCCC2)C3)cc1
- AC50 [15]: 5.3 µM (active)

SMILES: COc1ccc(S(=O)(=O)N(C)C[C@H]2Oc3ncc(-c4ccncc4)cc3C(=O)N([C@H](C)CO)C[C@@H]2C)cc1
- AC50 [15]: 6.55 µM (active)

SMILES: COc1ccc(C#Cc2ccc3c(c2)[C@@H]2[C@@H](CCN2C(=O)C2CCC2)[C@H](CO)N3)cc1
- AC50 [15]: 5.78 µM (active)
